Reference: publication PMC5187537, “Antioxidant Activity of Oat Proteins Derived Peptides in Stressed Hepatic HepG2 Cells” (Antioxidants, 2016)
Peptide text beside a SMILES is read from it.

How the values were obtained:
catalase (CAT) = assay: Catalase activity of lysates of AAPH-stressed cells; type: cell-based, Human; conditions: then AAPH 24 h; for Further increase of CAT activity compared to PC cells: 50 µM peptide 24 h
Experimental: Cells were seeded at 1 × 10^6 cells/plate in 60 mm tissue culture plates and allowed to grow for 24 h. In each plate, cells were washed twice with 4 mL of PBS (pH 7.2), and treated with 4 mL peptide samples (P1, P2, P6, P7) dissolved in culture media at 50 or 100 µM for 24 h. After removal of peptide solutions, cells were washed twice with 4 mL of PBS/plate and treated with 4 mL of […] dissolved in culture media and allowed to incubate for 24 h. Cells in each culture plate were harvested by incubation (5 min) with 0.5 mL of 0.25% trypsin, addition of 1 mL of culture media and centrifugation at 1000× g for 5 min. Cell pellets were washed with ice cold PBS (500 µL each) until no pink color was observed, re-suspended in ice cold PBS (300 µL) for the superoxide dismutase (SOD) assay, 500 µL for glutathione peroxidase (GPx) and catalase (CAT) assays. For total glutathione assay, 300 µL of 5% ice cold sulfosalicylic acid bubbled with 100% nitrogen was used for cell lysis. Cells were lysed by sonication on ice for 1 min using a probe-type sonicator (Vibra-Cell, Sonics and Materials Inc., Newtown, CT, USA) pulsing at 15 s on and 10 s off cycles. Following centrifugation of cell lysate at 13,000× g (4 °C), pellets containing cell debris were discarded, while supernatants were used for determination of glutathione content. Protein contents were determined using a modified Lowry assay. To measure the catalase activity, 1790 µL potassium phosphate buffer (50 mM, pH 7.0) was mixed with 200 µL cell lysate in a UV cuvette. Ten µL of H2O2 (30%) was added, and removal of H2O2 by catalase was followed at 240 nm using a Cary 50 Bio UV-Vis spectrophotometer with 18-cell changer (Varian Inc., Mississauga, ON, Canada). The activity was expressed as a percentage of control.

HepG2 cells = type: cell-based, Human; conditions: 50 or 100 µM peptide 24 h, then 20 mM AAPH 24 h, MTT
Experimental: Human hepatocellular carcinoma (HepG2) cells were purchased from the American Type Culture Collection (ATCC; Manassas, VA, USA). They were cultured at 37 °C in a humidified incubator with 5% CO2 and 95% air. Dulbecco’s Minimal Essential Media (DMEM) supplemented with 10% (v/v) Fetal Bovine Serum was used for the maintenance of cells. […] The MTT (3-(4,5-dimethylthiazol-2-yl)-2,5-diphenyltetrazolium bromide) assay, as described in an earlier research, was used for cytotoxicity and cytoprotective tests. […] Following another 24 h incubation, cells were washed twice with 200 µL of PBS. Ten µL of MTT solution (5 mg/mL in PBS) and 100 µL of media were added to each well. After 1 h, MTT solution was removed, and 50 µL DMSO were added. Absorbances were recorded at 570 nm with 630 nm background subtraction using a BioTek Epoch™ microplate reader (Fisher Scientific, Nepean, ON, Canada). Untreated cells were used as negative control (NC) and cells treated with only AAPH were used as positive control (PC).

SMILES | Further increase of CAT activity compared to PC cells (catalase (CAT)) [%] | Effect on CAT activity (catalase (CAT); 100 µM peptide 24 h) | Cytoprotective effect against AAPH-induced damage (HepG2 cells)
CC[C@H](C)[C@H](NC(=O)[C@H](Cc1ccc(O)cc1)NC(=O)[C@@H](NC(=O)[C@H](CC(C)C)NC(=O)CN)C(C)C)C(=O)N[C@@H](CC(C)C)C(=O)O [P2] (H-GLVYIL-OH; N-terminus and C-terminus assumed) | 60 | almost doubled | 
CC[C@H](C)[C@H](NC(=O)[C@H](Cc1ccc(O)cc1)NC(=O)[C@@H](NC(=O)[C@H](CC(C)C)NC(=O)CNC(=O)[C@@H]1CCCN1C(=O)[C@H](C)NC(=O)[C@H](CC(N)=O)NC(=O)[C@H](Cc1c[nH]cn1)NC(=O)[C@@H](N)Cc1ccc(O)cc1)C(C)C)C(=O)N[C@@H](CC(C)C)C(=O)O [P6] (H-YHNAPGLVYIL-OH; N-terminus and C-terminus assumed) | 60 |  | cytoprotective
